Laboratory results as given in PubChem BioAssay (NCI).
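Protocol summary: plate cells (96-well), add compound at 5 concentrations, incubate 48 h, interpolate endpoints linearly. At the GI50, growth is halved. TGI marks complete inhibition of growth.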

Experiments:
Test in all cases: growth of human tumour cells (NCI), 48 h
[1] = system: MALME-3M melanoma
[2] = system: SK-MEL-28 melanoma
[3] = system: SF-539 CNS
[4] = system: SR leukemia
[5] = system: DU-145 prostate
[6] = system: TK-10 renal
[7] = system: PC-3 prostate
[8] = system: SK-MEL-2 melanoma
[9] = system: SNB-75 CNS
[10] = system: HOP-62 NSCLC

SMILES | TGI [1] | TGI [2] | TGI [3] | TGI [4] | TGI [5] | TGI [6] | TGI [7] | TGI [8] | TGI [9] | TGI [10] | GI50 [10] | GI50 [1] | GI50 [2] | GI50 [3] | GI50 [4] | GI50 [5] | GI50 [6] | GI50 [7] | GI50 [9]
O=C1C=C2S[C@H]3C[C@]2(C=C1Br)c1c(c(O)c2c4c1=NCCC=4C=N2)N3 | 0.261 µM | 2.76 µM | 3.03 µM | > 100 µM | 4.09 µM | 2.71 µM | 4.52 µM | 1.39 µM | 2.92 µM |  |  |  |  |  |  |  |  |  | 
C=C1c2nc3ccccc3n2C=C(c2ccc(Cl)cc2)N1c1ccc(OCCN2CCOCC2)cc1 | > 100 µM | > 100 µM | > 100 µM | 42 µM | > 100 µM | > 100 µM | > 100 µM | 29.1 µM | > 100 µM | > 100 µM |  |  |  |  |  |  |  |  | 
O=C(N=Nc1ccc([N+](=O)[O-])cc1)NNc1ccc([N+](=O)[O-])cc1 | 53.1 µM | 36.2 µM |  | 72.6 µM | 18.4 µM | 53.6 µM | 52 µM | 28.9 µM | 79.9 µM | 34 µM |  |  |  |  |  |  |  |  | 
COc1cc2c(cc1C)NC(=O)/C2=C/c1c(Cl)[nH]c2cc(C)c(OC)cc12 | 25.4 µM | 24 µM | 1.33 µM | 12 µM | 14.8 µM | 18 µM | 21.7 µM | 22.1 µM | 11.8 µM | 23.2 µM |  |  |  |  |  |  |  |  | 
c1ccc(Cc2cccc3cc(-c4ccc(-c5ccccc5)cc4)[nH]c23)cc1 | 54 µM | > 100 µM | > 100 µM | 47 µM | > 100 µM | > 100 µM | > 100 µM | > 100 µM | > 100 µM | > 100 µM |  |  |  |  |  |  |  |  | 
O=[N+]([O-])c1cc2n[nH]nc2c2nonc12 | > 100 µM | > 100 µM | 56 µM | > 100 µM | > 100 µM | > 100 µM | > 100 µM | > 100 µM | > 100 µM | > 100 µM |  |  |  |  |  |  |  |  | 
CCN(CC)CCN1C(=O)c2cccc3c(-c4ccc5c(c4)ncn5C4CCCCC4)ccc(c23)C1=O | 2.81 µM | 3.1 µM | 2.75 µM | 2.06 µM | 3.2 µM | 4.39 µM | 4.66 µM |  | 2.4 µM | 3.05 µM | 1.46 µM | 1.38 µM | 1.63 µM | 1.37 µM | 0.414 µM | 1.59 µM | 1.76 µM | 1.64 µM | 1.05 µM
Nn1c(CNc2ccc(-c3nnc(Nc4ccc(Cl)cc4)n3N)cc2)nnc1Nc1ccc(Cl)cc1 | > 100 µM | > 100 µM |  |  | > 100 µM | > 100 µM | > 100 µM | > 100 µM | > 100 µM | 93 µM |  |  |  |  |  |  |  |  | 
O=c1oc2ncccc2n1Cc1ccc([N+](=O)[O-])cc1 | > 100 µM | > 100 µM | > 100 µM | > 100 µM | > 100 µM | > 100 µM | > 100 µM | > 100 µM | > 100 µM | > 100 µM |  |  |  |  |  |  |  |  | 
Cc1nn2c(N)cc(=O)nc2nc1/C=C/c1ccc(N(C)C)cc1 | 49.8 µM | > 100 µM |  | > 100 µM | > 100 µM | > 100 µM | > 100 µM | > 100 µM |  | > 100 µM |  |  |  |  |  |  |  |  | 
CC(C)(C)OC(=O)N1C(C2=COc3ccccc3O2)=COc2ccccc21 | 58.1 µM | 87.5 µM | 41.2 µM | 53.3 µM | 78.2 µM | > 100 µM | > 100 µM | 53.2 µM | > 100 µM | 45.3 µM |  |  |  |  |  |  |  |  | 
N#CS/C(C(Cl)=C(Cl)Cl)=C(/Cl)[N+](=O)[O-] | 3.25 µM | 3.45 µM | 16.1 µM | 2.15 µM | 27.8 µM | 4.66 µM | 9.79 µM | 17.1 µM | 52 µM | 33.4 µM |  |  |  |  |  |  |  |  | 
CS(C)(=O)=N/C=C\C(=O)C(Cl)(Cl)Cl | > 100 µM | > 100 µM | > 100 µM | > 100 µM | > 100 µM | > 100 µM | > 100 µM | > 100 µM | > 100 µM | > 100 µM |  |  |  |  |  |  |  |  | 
Cn1c(-c2ccccc2)cc(-c2ccc3c(c2)OCO3)c1-c1cccs1 |  | > 100 µM | > 100 µM | > 100 µM | > 100 µM | > 100 µM | > 100 µM | > 100 µM | > 100 µM | > 100 µM |  |  |  |  |  |  |  |  | 
CCOC(=O)/C(C(=S)NC)=C(/N)N1CCCC1 | > 100 µM | > 100 µM | > 100 µM | > 100 µM | > 100 µM | > 100 µM | > 100 µM | > 100 µM |  | > 100 µM |  |  |  |  |  |  |  |  | 
O=C1/C(=C/c2ccc(O)cc2)NC(=S)N1CN1CCCCC1 | > 100 µM | > 100 µM |  | > 100 µM | > 100 µM | > 100 µM | > 100 µM | > 100 µM | > 100 µM | > 100 µM |  |  |  |  |  |  |  |  | 
OC(c1cc(C(O)(C(F)(F)F)C(F)(F)F)ncn1)(C(F)(F)F)C(F)(F)F | > 10 µM | > 10 µM | > 10 µM | > 10 µM | > 10 µM | > 10 µM | > 10 µM | > 10 µM | > 10 µM | > 10 µM |  |  |  |  |  |  |  |  | 
CC1=CC(c2ccccc2)OP1(=O)c1ccccc1 (stereo not given) | > 100 µM | > 100 µM | > 100 µM | > 100 µM | > 100 µM | > 100 µM | > 100 µM | > 100 µM | > 100 µM | > 100 µM |  |  |  |  |  |  |  |  | 
CCCCc1ccc(Nc2nc3c(ncn3C3OC(COC(C)=O)C(OC(C)=O)C3OC(C)=O)c(=O)[nH]2)cc1 (stereo not given) | 36.8 µM |  | 57.9 µM | 35.9 µM | 90.6 µM | > 100 µM | 48.1 µM | 31 µM |  | 35.5 µM |  |  |  |  |  |  |  |  | 
N#CC12COC3(CCCCC3C1(C#N)C#N)OC2=N (stereo not given) | 35.6 µM | 46.8 µM | 27.5 µM |  | 28.7 µM | 31.6 µM | 27.3 µM | 25.3 µM | 35.2 µM |  |  |  |  |  |  |  |  |  | 
COC(=O)C12CCC(C(=O)OC)(Cc3c(c4ccccc4n3S(=O)(=O)c3ccccc3)C1)C2=O (stereo not given) | > 100 µM | > 100 µM | > 67.3 µM | > 100 µM | > 100 µM | > 100 µM | > 100 µM | > 100 µM | > 100 µM | > 100 µM |  |  |  |  |  |  |  |  | 
Nc1[nH]c(=O)nc2sc3c(c12)CCCC3 | > 100 µM | > 100 µM | > 100 µM | > 100 µM | > 100 µM | > 100 µM | > 100 µM | > 100 µM | 64.4 µM | > 100 µM |  |  |  |  |  |  |  |  | 
